Assay results as given in PubChem BioAssay (NCI).
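48-hour exposure; five concentrations; linearly interpolated endpoints. TGI: concentration producing complete growth inhibition.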

How the values were obtained:
Assay in all cases: growth of human tumour cells (NCI), 48 h
OVCAR-4 ovarian = test system: OVCAR-4 ovarian
SF-295 CNS = test system: SF-295 CNS
UO-31 renal = test system: UO-31 renal
OVCAR-8 ovarian = test system: OVCAR-8 ovarian
MCF7 breast = test system: MCF7 breast
IGROV1 ovarian = test system: IGROV1 ovarian
HCC-2998 colon = test system: HCC-2998 colon
HOP-92 NSCLC = test system: HOP-92 NSCLC
TK-10 renal = test system: TK-10 renal
MDA-MB-435 = test system: MDA-MB-435
EKVX NSCLC = test system: EKVX NSCLC
CCRF-CEM leukemia = test system: CCRF-CEM leukemia
SR leukemia = test system: SR leukemia
SK-MEL-5 melanoma = test system: SK-MEL-5 melanoma
MDA-MB-231 breast = test system: MDA-MB-231 breast
KM12 colon = test system: KM12 colon
HL-60(TB) leukemia = test system: HL-60(TB) leukemia
NCI/ADR-RES ovarian = test system: NCI/ADR-RES ovarian
K-562 leukemia = test system: K-562 leukemia
MALME-3M melanoma = test system: MALME-3M melanoma
NCI-H226 lung = test system: NCI-H226 lung
NCI-H460 lung = test system: NCI-H460 lung
LOX IMVI melanoma = test system: LOX IMVI melanoma
SNB-75 CNS = test system: SNB-75 CNS
SW-620 colon = test system: SW-620 colon
SN12C renal = test system: SN12C renal
UACC-257 melanoma = test system: UACC-257 melanoma
SK-MEL-2 melanoma = test system: SK-MEL-2 melanoma
HT29 colon = test system: HT29 colon
HOP-62 NSCLC = test system: HOP-62 NSCLC
OVCAR-5 ovarian = test system: OVCAR-5 ovarian
COLO 205 colon = test system: COLO 205 colon
UACC-62 melanoma = test system: UACC-62 melanoma
SK-MEL-28 melanoma = test system: SK-MEL-28 melanoma
SK-OV-3 ovarian = test system: SK-OV-3 ovarian
MOLT-4 leukemia = test system: MOLT-4 leukemia
786-0 renal = test system: 786-0 renal
A549 NSCLC = test system: A549 NSCLC
HCT-15 colon = test system: HCT-15 colon
M14 melanoma = test system: M14 melanoma
SF-268 CNS = test system: SF-268 CNS
ACHN renal = test system: ACHN renal
SF-539 CNS = test system: SF-539 CNS
NCI-H23 lung = test system: NCI-H23 lung
OVCAR-3 ovarian = test system: OVCAR-3 ovarian
NCI-H522 lung = test system: NCI-H522 lung
PC-3 prostate = test system: PC-3 prostate
CAKI-1 renal = test system: CAKI-1 renal
U251 CNS = test system: U251 CNS
SNB-19 CNS = test system: SNB-19 CNS
HS 578T breast = test system: HS 578T breast
HCT-116 colon = test system: HCT-116 colon
A498 renal = test system: A498 renal
MDA-N = test system: MDA-N
BT-549 breast = test system: BT-549 breast
DU-145 prostate = test system: DU-145 prostate
RXF 393 renal = test system: RXF 393 renal

In the case of O=c1ccn(C2OC(CO)C(O)C2[Se]c2ccccc2)c(=O)[nH]1 (stereo unspecified), the TGI (OVCAR-4 ovarian) is reported as > 100 µM, the TGI (SF-295 CNS) is reported as > 100 µM and the TGI (UO-31 renal) is reported as > 100 µM. The TGI (OVCAR-8 ovarian) was > 100 µM, the TGI (MCF7 breast) was > 100 µM and the TGI (IGROV1 ovarian) was > 100 µM. The TGI (HCC-2998 colon) was > 100 µM, the TGI (HOP-92 NSCLC) was > 100 µM and the TGI (TK-10 renal) was 0.685 µM. For the same compound, the TGI (MDA-MB-435) was > 100 µM, the TGI (EKVX NSCLC) was > 100 µM and the TGI (CCRF-CEM leukemia) was > 100 µM. The TGI (SR leukemia) was > 100 µM, the TGI (SK-MEL-5 melanoma) was > 100 µM and the TGI (MDA-MB-231 breast) was > 100 µM. The TGI (KM12 colon) was > 100 µM, the TGI (HL-60(TB) leukemia) was > 100 µM and the TGI (NCI/ADR-RES ovarian) was > 100 µM. For the same compound, the TGI (K-562 leukemia) was > 100 µM, the TGI (MALME-3M melanoma) was > 100 µM and the TGI (NCI-H226 lung) was > 100 µM. For the same compound, the TGI (NCI-H460 lung) was > 100 µM, the TGI (LOX IMVI melanoma) was > 100 µM and the TGI (SNB-75 CNS) was > 100 µM. For the same compound, the TGI (SW-620 colon) was > 100 µM, the TGI (SN12C renal) was > 100 µM and the TGI (UACC-257 melanoma) was 14.2 µM. The TGI (SK-MEL-2 melanoma) was > 100 µM, the TGI (HT29 colon) was > 100 µM and the TGI (HOP-62 NSCLC) was > 100 µM. The TGI (OVCAR-5 ovarian) was > 100 µM, the TGI (COLO 205 colon) was > 100 µM and the TGI (UACC-62 melanoma) was 7.31 µM. The TGI (SK-MEL-28 melanoma) was > 100 µM, the TGI (SK-OV-3 ovarian) was > 100 µM and the TGI (MOLT-4 leukemia) was > 100 µM. For the same compound, the TGI (786-0 renal) was > 100 µM, the TGI (A549 NSCLC) was > 100 µM and the TGI (HCT-15 colon) was > 100 µM. The TGI (M14 melanoma) was > 100 µM, the TGI (SF-268 CNS) was > 100 µM and the TGI (ACHN renal) was > 100 µM. The TGI (SF-539 CNS) was > 100 µM, the TGI (NCI-H23 lung) was > 100 µM and the TGI (OVCAR-3 ovarian) was > 100 µM. For the same compound, the TGI (NCI-H522 lung) was > 100 µM, the TGI (PC-3 prostate) was > 100 µM and the TGI (CAKI-1 renal) was > 100 µM. The TGI (U251 CNS) was > 100 µM, the TGI (SNB-19 CNS) was > 100 µM and the TGI (HS 578T breast) was > 100 µM. For the same compound, the TGI (HCT-116 colon) was > 100 µM, the TGI (A498 renal) was > 100 µM and the TGI (MDA-N) was > 100 µM. The TGI (BT-549 breast) was > 100 µM and the TGI (DU-145 prostate) was > 100 µM.
COc1cccc2c1OC(c1ccc(C#N)cc1)C([N+](=O)[O-])=C2 (stereo unspecified) was tested, and the TGI (OVCAR-4 ovarian) was 3.11 µM, the TGI (SF-295 CNS) was 18.5 µM and the TGI (UO-31 renal) was 3.01 µM. It also gave a TGI (OVCAR-8 ovarian) of 5.28 µM, a TGI (MCF7 breast) of 2.88 µM and a TGI (IGROV1 ovarian) of 3.76 µM. The TGI (RXF 393 renal) was 3.12 µM, the TGI (HCC-2998 colon) was 3.15 µM and the TGI (HOP-92 NSCLC) was 3.27 µM. It also gave a TGI (TK-10 renal) of 7.77 µM, a TGI (MDA-MB-435) of 2.72 µM and a TGI (EKVX NSCLC) of 18.9 µM. For the same compound, the TGI (CCRF-CEM leukemia) was 4.51 µM, the TGI (SR leukemia) was 3.11 µM and the TGI (SK-MEL-5 melanoma) was 2.87 µM. The TGI (MDA-MB-231 breast) was 2.92 µM, the TGI (HL-60(TB) leukemia) was 5.62 µM and the TGI (NCI/ADR-RES ovarian) was > 100 µM. The TGI (K-562 leukemia) was > 100 µM, the TGI (MALME-3M melanoma) was 2.97 µM and the TGI (NCI-H226 lung) was 9.75 µM. The TGI (NCI-H460 lung) was 4.92 µM, the TGI (LOX IMVI melanoma) was 3.38 µM and the TGI (SNB-75 CNS) was 7.32 µM. The TGI (SW-620 colon) was 2.8 µM, the TGI (SN12C renal) was 4.37 µM and the TGI (UACC-257 melanoma) was 2.68 µM. It also gave a TGI (SK-MEL-2 melanoma) of 4.38 µM, a TGI (HT29 colon) of 3.14 µM and a TGI (HOP-62 NSCLC) of 8.3 µM. It also gave a TGI (OVCAR-5 ovarian) of 3.72 µM, a TGI (COLO 205 colon) of 3.15 µM and a TGI (UACC-62 melanoma) of 3.33 µM. It also gave a TGI (SK-MEL-28 melanoma) of 5.93 µM, a TGI (SK-OV-3 ovarian) of 7.67 µM and a TGI (786-0 renal) of 11.9 µM. It also gave a TGI (A549 NSCLC) of 7.03 µM, a TGI (HCT-15 colon) of 3.11 µM and a TGI (M14 melanoma) of 3.18 µM. It also gave a TGI (SF-268 CNS) of 16.1 µM, a TGI (ACHN renal) of 3.49 µM and a TGI (SF-539 CNS) of 4.23 µM. For the same compound, the TGI (NCI-H23 lung) was 3.25 µM, the TGI (OVCAR-3 ovarian) was 4.6 µM and the TGI (NCI-H522 lung) was 0.412 µM. For the same compound, the TGI (PC-3 prostate) was 4.13 µM, the TGI (CAKI-1 renal) was 4.89 µM and the TGI (U251 CNS) was 3.56 µM. The TGI (SNB-19 CNS) was 19.2 µM, the TGI (HS 578T breast) was 5.74 µM and the TGI (HCT-116 colon) was 2.8 µM. The TGI (A498 renal) was 4.03 µM, the TGI (MDA-N) was 2.87 µM and the TGI (BT-549 breast) was 2.85 µM. For the same compound, the TGI (DU-145 prostate) was 9.39 µM.
